In US11384078B2, “5,6-fused-bicyclic compounds and compositions for the treatment of parasitic diseases” (NOVARTIS AG, priority 2017, dated 2022):
Read-outs that look alike come from different tables or passages of the source.

Columns and labels:
Type in all cases: cell-based
[1] = tested on: Leishmania donovani axenic amastigote; experiment: In vitro assay for growth inhibition of Leishmania donovani axenic amastigote (Cell TiterGlo luminescence); conditions: Leishmania donovani, read-out: L. donovani amastigotes EC50
Method: Abbreviations as used herein below have the corresponding meaning: • CPRG Chlorophenol Red-P-D-galactopyranoside • ATP adenosine triphosphate • BSA bovine serum albumin • DMSO dimethyl sulfoxide • FBS fetal bovine serum • PBS phosphate buffered saline • RPMI 1640 Rosweli Park Memorial Institute (RPMI) 1640 medium In Vitro Assay for Growth Inhibition of Leishmania donovani Axenic Amastiqote
Leishmania donovani axenic amastigote parasites are grown at 37° C., 5% CO2 in media made of RPMI 1640, 4 mM L-glutamine, 20% heat inactivated FBS, 100 units/ml of penicillin and 100 μg/ml of streptomycin, 23 μM folic acid, 100 μM adenosine, 22 mM D-glucose, 25 mM MES. The pH of media is adjusted to 5.5 at 37° C. using HCl. 20 μL of media is first dispensed into 384 well plates and 100 nL of the compounds of invention in DMSO are added to the plate wells. At the same time control compounds and DMSO are added to plates to serve as the positive and negative controls, respectively. 40 μL of parasite culture (9600 parasites) are then added to the plate wells. The plates are then placed into incubators. After two days incubation, 20 μL of Cell TiterGlo® (Promega) is added to the plate wells. The luminescence signal of each well is measured using the Envision reader (Perkin Elmer).

[2] = tested on: Trypanosoma brucei brucei (Lister 427) strain; experiment: Assay for growth inhibition against Trypanosoma brucei brucei (Cell TiterGlo ATP luminescence); conditions: read-out: T. Brucei (HAT) EC50
Method: Assay for Growth Inhibition Against Trypanosoma brucei brucei
The proliferation is quantified by the addition of Cell TiterGlo® (Promega®) a luminescent cell viability assay that measures the number of viable cells in culture based on the quantification of cellular ATP amount, which is an indicator of metabolically active cells.
Trypanosoma brucei brucei (Lister 427) strain was grown in Hirumi 9 (HMI-9) media supplemented with 10% v/v fetal bovine serum (FBS) and 10% v/v serum plus. For measurement of cell proliferation inhibition, test compounds were three fold serially diluted in duplicates to 384-well white plates, resulting in 10 dilutions for each compound. A volume of 40 μL of T. b. brucei culture (10,000 parasites/mL) was added to each well, and the assay plates were incubated at 37° C. for 2 days in a CO2 incubator. Growth inhibition was monitored by measuring ATP levels, which, is used as a surrogate marker for growth. Relative luminescence units were measured using TECAN® M1000 after 30 min of adding 40 μl of Cell TiterGlo®. IC50 values were determined by analyzing the data using HELIOS software. IC50 is defined as the lowest concentration of the compound that inhibited 50% growth of the T. b. brucei wild type strain compared to untreated controls.

[3] = tested on: Trypanosoma cruzi amastigotes cultured in 3T3 fibroblast cells; experiment: Assay for growth inhibition of kinetoplastid parasite Trypanosoma cruzi (beta-galactosidase Tulahuen strain, CPRG readout); conditions: Trypanosoma cruzi, Fibroblast, read-out: Buckner infectious T. cruzi EC50
From the text: Assay for Growth Inhibition of Kinetoplastid Parasite Trypanosoma cruzi
Compounds of the invention can be assayed for inhibitor activity against Trypanosoma cruzi amastigotes cultured in 3T3 fibroblast cells. The assay is done using the mammalian stage (amastigotes) of T. cruzi that replicates in the intracellular space of host cells. The host cells are initially infected with the culture-derived trypomastigotes that rapidly invade and then divide as amastigotes. The protocol uses the Tulahuen strain of T. cruzi that has been engineered to express the E. coli beta-galactosidase gene (Lac-Z) (Antimicr. Agents Chemoth. 40:2592, 1996). This allows for a colorimetric readout by using the substrate CPRG and an absorbance plate reader.
3T3 fibroblast cells are re-suspended in RPMI-1640 medium without phenol red medium supplemented with 10% FBS (heat inactivated), 100 μg/ml penicillin, and 100 μg/ml streptomycin. Forty μL of suspension (1,000 cells) is dispensed into 384-well plates and incubated overnight at 37° C. temperature and in atmosphere containing 5% CO2. The following day, 100 nL of compounds of the invention in DMSO are added to plate wells containing 3T3 cells. At the same time control compounds (benznidazole and nifurtimox) and DMSO are added to plates to serve as the positive and negative controls, respectively. After that, 10 μL of media containing 10,000 T. cruzi trypomastigotes are added to each plate well and plates are placed back into incubators. After 6 day incubation, 10 μL of reagent solution (0.6 mM CPRG, 0.6% NP-40 in PBS) is added to plates and incubated at room temperature for 2 hours. Absorbance is then measured on SpectraMax GEMINI fluorimeter to determine relative number of T. cruzi cells present in each plate well.

[4] = L. donovani axenic amastigotes in vitro
[5] = Trypanosoma brucei, T. brucei brucei (Lister 427)

Structure (SMILES) | EC50 [1, 4] [nM] | EC50 [2, 5] [nM] | EC50 ([2]; T. brucei brucei (Lister 427)) [nM] | further results
Cc1nc(C)c(C(=O)Nc2ccc(F)c(-n3cc4cc(-c5ncccc5C)cnc4n3)c2)o1 [Compound 1, N-(4-fluoro-3-(5-(3-methylpyridin-2-yl)-2H-pyrazolo[3,4-b]pyridin-2-yl)phenyl)-2,4-dimethyloxazole-5-carboxamide] |  |  |  | EC50 [1]: 7.1 nM; EC50 ([2]; Trypanosoma brucei): < 23 nM; EC50 [3]: 5.2 nM
Cc1cccnc1-c1cnc2nn(-c3cc(NC(=O)N4CC[C@@H](F)C4)ccc3F)cc2c1 [Compound 4, (R)-3-fluoro-N-(4-fluoro-3-(5-(3-methylpyridin-2-yl)-2H-pyrazolo[3,4-b]pyridin-2-yl)phenyl)pyrrolidine-1-carboxamide] | 1.3 | < 23 |  | EC50 ([3]; T. cruzi amastigotes in 3T3 fibroblast cells): 1 nM
O=C(Nc1ccc(F)c(-n2cc3cc(-c4ccccn4)cnc3n2)c1)C1CC1 [Compound 12, N-{4-fluoro-3-[5-(pyridin-2-yl)-2H-pyrazolo[3,4-b]pyridin-2-yl]phenyl}cyclopropanecarboxamide] | 41 | < 23 |  | 
O=C(CC1CC1)Nc1ccc(F)c(-n2cc3cc(-c4ccccn4)cnc3n2)c1 [Compound 13, 2-cyclopropyl-N-{4-fluoro-3-[5-(pyridin-2-yl)-2H-pyrazolo[3,4-b]pyridin-2-yl]phenyl}acetamide] | 71 | < 23 |  | 
O=C(Nc1ccc(F)c(-n2cc3cc(N4CC(F)C4)cnc3n2)c1)N1CCC1 [Compound 40, N-{4-fluoro-3-[5-(3-fluoroazetidin-1-yl)-2H-pyrazolo[3,4-b]pyridin-2-yl]phenyl}azetidine-1-carboxamide] |  |  | < 23 | 
O=C(Nc1ccc(F)c(-n2cc3cc(N4CC(F)C4)cnc3n2)c1)N1CC(F)C1 [Compound 58, 3-fluoro-N-{4-fluoro-3-[5-(3-fluoroazetidin-1-yl)-2H-pyrazolo[3,4-b]pyridin-2-yl]phenyl}azetidine-1-carboxamide] |  |  | < 23 | 
O=C(Nc1ccc(F)c(-n2cc3cc(N4CC(F)(F)C4)cnc3n2)c1)N1CCC1 [Compound 92, N-{3-[5-(3,3-difluoroazetidin-1-yl)-2H-pyrazolo[3,4-b]pyridin-2-yl]-4-fluorophenyl}azetidine-1-carboxamide] |  |  | < 23 | 
CC(C)c1cnc2nn(-c3cc(NC(=O)C4CC(F)C4)ccc3F)cc2c1 (centres unmarked) [Compound 121, 3-fluoro-N-{4-fluoro-3-[5-(propan-2-yl)-2H-pyrazolo[3,4-b]pyridin-2-yl]phenyl}cyclobutane-1-carboxamide] | 210 | 120 |  | 
O=C(Nc1ccc(F)c(-n2cc3cc(N4CC5CCC(C4)O5)cnc3n2)c1)N1CC(F)C1 [Compound 184, 3-fluoro-N-[4-fluoro-3-(5-{8-oxa-3-azabicyclo[3.2.1]octan-3-yl}-2H-pyrazolo[3,4-b]pyridin-2-yl)phenyl}azetidine-1-carboxamide] | 7.3 | < 23 |  | 
COCCNc1cnc2nn(-c3cc(NC(=O)N4CC(F)C4)ccc3F)cc2c1 [Compound 185, 3-fluoro-N-(4-fluoro-3-{5-[(2-methoxyethyl)amino]-2H-pyrazolo[3,4-b]pyridin-2-yl]phenyl)azetidine-1-carboxamide] | 200 | < 23 |  | 
O=C(Nc1ccc(F)c(-n2cc3cc(N4CCn5cnnc5C4)cnc3n2)c1)N1CC(F)C1 [Compound 186, 3-fluoro-N-[4-fluoro-3-(5-{5H,6H,7H,8H-[1,2,4]triazolo[4,3-a]pyrazin-7-yl}-2H-pyrazolo[3,4-b]pyridin-2-yl)phenyl}azetidine-1-carboxamide] | 460 | 240 |  | 
O=C(Nc1ccc(F)c(-n2cc3cc(-c4ncccc4F)cnc3n2)c1)N1CC(F)C1 [Compound 187, 3-fluoro-N-(4-fluoro-3-(5-(3-fluoropyridin-2-yl)-2H-pyrazolo[3,4-b]pyridin-2-yl)phenyl)azetidine-1-carboxamide] | 1.3 | < 23 |  | 
O=C(Nc1ccc(F)c(-n2cc3cc(-c4ncccc4Cl)cnc3n2)c1)N1CC(F)C1 [Compound 188, N-{3-[5-(3-chloropyridin-2-yl)-2H-pyrazolo[3,4-b]pyridin-2-yl]-4-fluorophenyl}-3-fluoroazetidine-1-carboxamide] | 2.4 | < 23 |  | 
O=C(Nc1ccc(F)c(-n2cc3cc(-c4cccnc4)cnc3n2)c1)N1CC(F)C1 [Compound 189, 3-fluoro-N-{4-fluoro-3-[5-(pyridin-3-yl)-2H-pyrazolo[3,4-b]pyridin-2-yl]phenyl}azetidine-1-carboxamide] | 3 | < 23 |  | 
C[C@@H]1CN(c2cnc3nn(-c4cc(NC(=O)N5CC(F)C5)ccc4F)cc3c2)C[C@H](C)O1 [Compound 190, N-(3-{5-[(2R,6S)-2,6-dimethylmorpholin-4-yl]-2H-pyrazolo[3,4-b]pyridin-2-yl]-4-fluorophenyl)-3-fluoroazetidine-1-carboxamide] |  |  | > 50000 | 
O=C(Nc1ccc(F)c(-n2cc3cc(N4CCC45COC5)cnc3n2)c1)N1CC(F)C1 [Compound 191, 3-fluoro-N-[4-fluoro-3-(5-{6-oxa-1-azaspiro[3.3]heptan-1-yl}-2H-pyrazolo[3,4-b]pyridin-2-yl)phenyl}azetidine-1-carboxamide] |  |  | < 23 | 
COCC1CN(c2cnc3nn(-c4cc(NC(=O)N5CC(F)C5)ccc4F)cc3c2)C1 [Compound 192] |  |  | < 23 | 
O=C(Nc1ccc(F)c(-n2cc3cc(N4CC5(CC5)C4)cnc3n2)c1)N1CC(F)C1 [Compound 193, N-[3-(5-{5-azaspiro[2.3]hexan-5-yl}-2H-pyrazolo[3,4-b]pyridin-2-yl)-4-fluorophenyl}-3-fluoroazetidine-1-carboxamide] |  |  | < 23 | 
O=C(Nc1ccc(F)c(-n2cc3cc(N4C[C@@H](F)[C@H](F)C4)cnc3n2)c1)N1CC(F)C1 [Compound 194, N-(3-{5-[(3R,4R)-3,4-difluoropyrrolidin-1-yl]-2H-pyrazolo[3,4-b]pyridin-2-yl]-4-fluorophenyl)-3-fluoroazetidine-1-carboxamide] |  |  | < 23 | 
[2H]C([2H])([2H])c1nc(C)c(C(=O)Nc2ccc(F)c(-n3cc4cc(-c5ncccc5C)cnc4n3)c2)o1 [Compound 278, N-{4-fluoro-3-[5-(3-methylpyridin-2-yl)-2H-pyrazolo[3,4-b]pyridin-2-yl]phenyl}-2-(^2H3)methyl-4-methyl-1,3-oxazole-5-carboxamide] | 7 | 13 |  | 
O=C(Nc1ccc(F)c(-n2cc3cc(C4CCCCO4)cnc3n2)c1)N1CCC1 (centres unmarked) [Compound 288, N-(4-fluoro-3-(5-(tetrahydro-2H-pyran-2-yl)-2H-pyrazolo[3,4-b]pyridin-2-yl)phenyl)azetidine-1-carboxamide] | 176 | 260 |  | 
O=C(Nc1ccc(F)c(-n2cc3cc(C4COCCO4)cnc3n2)c1)N1CCC1 (centres unmarked) [Compound 289, N-{3-[5-(1,4-dioxan-2-yl)-2H-pyrazolo[3,4-b]pyridin-2-yl]-4-fluorophenyl}azetidine-1-carboxamide] | 199 | 208 |  | 
